# Measurements as given in PMC8867545 (ACS Omega, 2022).
# What was measured:
# β-glucosidase (β-Glcase) [1] = test: UV-vis absorption at […] nm, Lineweaver-Burk; assay type: biochemical, Prunus dulcis; details: 1x PBS pH 5.33, room temperature, 100 μg/mL enzyme, 10-500 μM substrate
# β-glucosidase (β-Glcase) [2] = test: UV-vis absorption at […] nm, Lineweaver-Burk; assay type: biochemical, Prunus dulcis; details: 1x PBS pH 5.33, room temperature, 100 μg/mL enzyme, 5-200 μM substrate
SMILES,Km (β-glucosidase (β-Glcase) [1]),Km (β-glucosidase (β-Glcase) [2])
N#Cc1cccnc1S[C@@H]1O[C@H](CO)[C@@H](O)[C@H](O)[C@H]1O [Glc-o-MPN],228 µM,
N#Cc1ccc(S[C@@H]2O[C@H](CO)[C@@H](O)[C@H](O)[C@H]2O)nc1 [Glc-p-MPN],,162 µM
